Source: paper PMC4850106 (Journal of medicinal chemistry, 2016)

What was measured:
[1] = BBB-PAMPA assay; format: in vitro ADME, porcine; conditions: 500 µM in donor, 4 h
[2] = In vitro human BBB cell-based model; format: in vitro ADME; conditions: human
[3] = system: brain-like endothelial cells cocultured with pericytes; experiment: In vitro human BBB cell-based model; format: in vitro ADME; conditions: cell-based BBB model, 200 µM, 2 h
[4] = system: Sprague–Dawley rats; experiment: Respiratory effects by whole body plethysmography in rats; format: in vivo; conditions: iv, 13a 0.5 mg/kg, morphine 5 mg/kg
[5] = system: mice (C57BL6); conditions: acute pain, increased dosing ref 73; cited from earlier work
[6] = system: neuropathic mice; conditions: neuropathic conditions ref 73; cited from earlier work
[7] = target: human NOP (Homo sapiens, UniProt P41146); conditions: read-out: Ki for the human NOP; cited from earlier work
Chain of human NOP (P41146 whole entry): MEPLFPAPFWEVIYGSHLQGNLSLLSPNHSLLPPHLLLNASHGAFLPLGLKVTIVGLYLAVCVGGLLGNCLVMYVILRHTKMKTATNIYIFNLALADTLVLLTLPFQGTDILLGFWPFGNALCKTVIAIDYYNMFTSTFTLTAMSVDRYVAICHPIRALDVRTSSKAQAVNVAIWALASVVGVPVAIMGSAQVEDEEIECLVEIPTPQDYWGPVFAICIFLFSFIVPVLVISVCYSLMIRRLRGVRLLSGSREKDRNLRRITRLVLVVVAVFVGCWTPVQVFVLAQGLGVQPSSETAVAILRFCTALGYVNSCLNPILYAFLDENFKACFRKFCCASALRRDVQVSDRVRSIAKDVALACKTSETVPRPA

Q: Which results are given for `CC[C@H](C)[C@H](NC(=O)[C@H](CCCN=C(N)N)NC(=O)[C@H](Cc1ccc(O)cc1)NC(=O)[C@H](Cc1ccc(O)cc1)NC(=O)[C@H](CCCN=C(N)N)NC(C)=O)C(=O)N[C@@H](CCCCN)C(N)=O` [compound 8, Ac-Arg-Tyr-Tyr-Arg-Ile-Lys-NH2]?
A: transport (%) [1]: 0.15%; Papp A→B at 2 h, 200 µM [2]: 8.4 ×10⁻⁶ cm/s; mass balance (%) [3]: 95%; transport (%) [3]: 14%

Q: What does the source list for `CN1CC[C@]23c4c5ccc(O)c4O[C@H]2[C@@H](O)C=C[C@H]3[C@H]1C5` [morphine]?
A: inspiratory time [4]: significant increase in inspiratory time; respiratory frequency [4]: decrease in respiratory frequency; respiratory depression (ventilation minute) ([4]; vs saline, AUC): deleterious effect; %MPE in tail-flick test upon increased dosing [5]: 100 %MPE; sustained %MPE no matter how high the dose [6]: about 50 %MPE

Q: Which Ki [7] does the source give for “Ac-Arg-Tyr-Tyr-Arg-Trp-Arg-NH2 (Ac-RYYRWR-NH2)” here?
A: 0.1 nM
